Experimental data: patent US20200399308A1, “COMPOUNDS AND METHODS FOR ELICITING ANTIMICROBIAL ACTIVITY” (Technion Research & Development Foundation Limited, priority 2018, published 2020)
In brackets after ≈: the same amount, converted by molar mass. Non-standard residues stand in square brackets, D forms with d. Residues, ends and D or L forms follow the SMILES beside them. *: point of attachment. 12Ado = NCCCCCCCCCCCC(=O)O; Decanoyl = CCCCCCCCCC(=O)*; Orn = NCCC[CH](N)C(=O)O

Tests used:
[1] = tested on: Salmonella enterica serovar Typhimurium 14028; experiment: Minimal inhibitory concentration; assay type: cell-based; conditions: ST 14028, overnight incubation, read-out: MIC
Method: (§1) Minimal inhibitory concentrations (MICs) were determined as previously described. […] MICs were determined by microdilution susceptibility testing in 96-well plates (by Nunc) using inocula of 10^5 bacteria per ml. Cell populations were evaluated by optical density measurements at 620 nm and were calibrated against a set of standards. Hundred (100) μl of a bacterial suspension were added to 100 μl of culture medium (control) or to 100 μl of culture medium containing various tested compound concentrations in 2-fold serial dilutions. Inhibition of proliferation was determined by optical density measurements at 620 nm after an incubation period of 24 hours at 37° C. Data were obtained from ≥2 independent experiments performed in duplicate.
(§2) The mean value (±SD) is shown for Compound C; Minimum inhibitory concentration (MIC) of compounds required to inhibit bacterial proliferation after overnight incubation.

E. coli 25922 [2] = experiment: Outer-membrane damage assay (NPN uptake); assay type: cell-based, Escherichia coli; conditions: sub-MIC concentrations
Method: 1-N-phenylnaphthylamine (NPN) uptake (manifested as fluorescence) reflects outer-membrane damage because normally bacteria are able to exclude hydrophobic substances. As described elsewhere, E. coli 25922 was grown to the mid-logarithmic phase of growth (OD=0.4-0.6 at 600 nm), centrifuged, and resuspended in 5 mM HEPES buffer containing 5 mM glucose to OD 0.5. Next, […] of NPN solution (0.2 mM) was added to every milliliter bacteria suspension. Using black 96-well plates, […] of bacteria suspension was mixed with […] of test compound at the desired concentration and the fluorescence immediately monitored (excitation 360 nm, emission 460 nm) for up to 10 min. Data were obtained from at least 2 independent experiments performed in triplicate.
(FU denotes fluorescence units; triangles denote Compound B, circles denote PMB, squares denote untreated control; error bars=SD).

E. coli 25922 [3] = experiment: Growth kinetics by absorbance at 620 nm; assay type: cell-based, Escherichia coli; conditions: 10 μM Compound B, culture medium
Method: FIGS. 6A-B present growth kinetics assessed by measuring the absorbance at 620 nm of E. coli 25922 (FIG. 6A) and K. pneumoniae 1287 (FIG. 6B) in absence or presence of the 10 μM of Compound B (circles denote vehicle control, triangles denote Compound B; error bars represent standard deviations).

Escherichia coli 25922 [4] = experiment: Mouse peritonitis-sepsis model; assay type: in vivo
Method: A mouse peritonitis-sepsis model was created as described elsewhere. Infection was obtained after intraperitoneal injection of bacteria from a logarithmic-phase culture. Infected mice were treated subcutaneously. The doses were selected to allow comparison with the reference compound and to remain below the maximum tolerated dose after double-dose administration. […] Briefly, mouse peritonitis sepsis model for in vivo studies were performed using male ICR mice ([…]) obtained from Envigo Laboratories (Rehovot, Israel). […] Infection was obtained by intraperitoneal injection of a logarithmic phase culture of E. coli 25922 (1.3±0.2×10^6 CFU permouse in 0.3 ml PBS). […] Infection control mice were injected with the PBS vehicle. Mouse survival was monitored for up to 7 days after treatment. Statistical analyses were performed by paired Student's t test, at α=0.05.

Escherichia coli 25922 [5] = experiment: Serum survival assay; assay type: cell-based
Method: (§3) Serum survival assays were performed using fresh serum from normal mice or human serum from the Israel Blood Bank; samples were pooled and stored in aliquots at −80° C. until use. Time-dependent killing was determined in a final volume of 125 μL consisting of 112.5 μL of serum containing either a tested compound, egg white lysozyme (Amresco), lactoferrin (Vivinal lactoferrin FD; DMV International, Delhi, N.Y.), anti-murine C5/C5a antibody (25 μg/mL; ab194637; Abcam), or their combination, as specified. These solutions were supplemented with 12.5 μL of bacteria suspended in PBS at the desired concentration. After the specified time points of exposure, cultures were subjected to serial 10-fold dilutions in saline (0.85% NaCl) and plated for bacterial enumeration after incubation at 37° C. for an additional 24 hours. In heat-treated experiments, sera were incubated at 56° C. for 30 minutes for protein inactivation. Data were obtained from 3 independent experiments.

[6] = tested on: Klebsiella pneumoniae 1287; experiment: Serum survival assay; assay type: cell-based; conditions: 10 μM Compound B
Method: as §3

[7] = tested on: resistance—nodulation—division deletion mutant; experiment: MIC on efflux mutant; assay type: cell-based; conditions: Escherichia coli
Description: The following strains were used for the studies below: Escherichia coli strain ML-35p (American Type Culture Collection [ATCC]; […]. The following gram-positive species was investigated: methicillin-resistant Staphylococcus aureus clinical isolate USA300 10017 (a gift from Dr. Gili Regev-Yochay, Infectious Disease Unit, Sheba Medical Center, Israel). Additional Escherichia coli strains tested include β-lactamase producer 35218; clinical isolate strains 14182, 14384, and U16327; and two K12 isogenic mutants, AG100 and AG100A. Unless otherwise stated, all bacterial cultures were grown overnight in Luria-Bertani broth (LB).
as §1

[8] = tested on: Klebsiella pneumoniae 1287; experiment: Mouse peritonitis-sepsis model; assay type: in vivo; conditions: for survival frequency: neutropenic ICR mice infected i.p.
Escherichia coli 25922 [9] = experiment: Mouse thigh infection model; assay type: in vivo; conditions: normal mice inoculated intramuscularly, treated s.c. 1 hour thereafter, CFU 24 hours post-treatment
Method: (§4) Mouse thigh infection model was afforded from normal ICR mice, which were inoculated intramuscularly and treated subcutaneously 1 hour thereafter with a tested compound or polymyxin B (PMB; Sigma-Aldrich) as described elsewhere. P values were calculated using a 1-tailed t test (assuming unequal variance). A P value of <0.05 is considered statistically significant.

[10] = tested on: Klebsiella pneumoniae 1287; experiment: Mouse thigh infection model; assay type: in vivo; conditions: normal mice inoculated intramuscularly, treated s.c. 1 hour thereafter
Method: as §4

[11] = Critical aggregation concentration by light scattering in PBS; assay type: physicochemical; conditions: light scattering in phosphate-buffered saline
Method: Organization of the compounds in aqueous solution was assessed by light-scattering measurements in phosphate buffered saline (PBS; 10 mM Na2HPO4, 150 mM NaCl, pH=7.0). Hemolytic assays were performed as described elsewhere, using fresh mouse red blood cells.
as §2

[12] = bacteria exposed in vitro to 5 μM Compound B for 15 minutes, neutropenic mice, 3 days post-infection

## CCCCCCCCCC(=O)NC(CCCN)C(=O)NC(CCCN)C(=O)NCCCCCCCCCCCC(=O)NC(CCCN)C(N)=O (stereo not shown) [Compound B] (Decanoyl-[Orn][Orn][12Ado][Orn]-NH2; configuration not given here)
[1]
  MIC: > 50 µM
E. coli 25922 [2]
  OM permeabilization (NPN fluorescence): rapidly caused a dose-dependent increase in fluorescence
E. coli 25922 [3]
  growth kinetics in presence vs absence of compound: practically identical curves
Escherichia coli 25922 [4]; [12]
  animal survival after infection with pretreated bacteria: 40%
Escherichia coli 25922 [4]; neutropenic ICR mice infected i.p., lower dose administrated twice (1 and 6 hours after inoculation)
  survival rate: 70%
Escherichia coli 25922 [4]; neutropenic ICR mice infected i.p., s.c. single dose 1 hour after inoculation
  mice protected from fatal sepsis (survival): 40%
Escherichia coli 25922 [4]; neutropenic ICR mice, Compound B […] s.c. alone, 1 hour after infection
  mice protected from developing sepsis: 36%
Escherichia coli 25922 [5]; Escherichia coli, 25922, 80% mouse serum, 10 μM Compound B, 3 h, read-out: growth inhibition in mouse serum
  inhibition at 10 µM: 74%
Escherichia coli 25922 [5]; 10 μM Compound B, absence of exogenous lysozyme
  antibacterial effect in human serum: significant growth inhibition
Escherichia coli 25922 [5]; 10 μM Compound B, presence of exogenous lysozyme (18 μM)
  antibacterial effect in human serum: potent bactericidal effect
Escherichia coli 25922 [5]; mouse serum obtained 1 hour after subcutaneous administration ([…]), 3 h incubation
  growth inhibition in serum obtained from treated mice: 80%
Escherichia coli 25922 [5]; mouse serum, 10 μM Compound B plus 18 μM lysozyme
  E. coli counts (final, from 4 log): 1.7 log CFU/mL
[6]; Klebsiella pneumoniae, 1287, 80% mouse serum, 3 h, read-out: growth inhibition in mouse serum
  inhibition at 10 µM: 48%
[6]; absence of exogenous lysozyme
  antibacterial effect in human serum: significant growth inhibition
[6]; presence of exogenous lysozyme (18 μM)
  antibacterial effect in human serum: potent bactericidal effect
[7]
  MIC: 6.3 µM (≈ 4.48 µg/mL)
[8]; [12]
  animal survival after infection with pretreated bacteria: 70%
[8]; s.c. double doses
  survival frequency: 90%
[8]; s.c. single dose
  survival frequency: 60%
Escherichia coli 25922 [9]
  reduction of the number of inoculated E. coli: 80%
[10]
  effect on proliferation in thigh: significantly inhibited proliferation
[11]
  CAC, critical aggregation concentration: >100 µM
